From PMC4605843, “Cell-Penetrating Peptides Selectively Cross the Blood-Brain Barrier In Vivo” (PLoS ONE, 2015)
Like-named read-outs stand apart in the source and are kept apart here. Ends that are not written are not given here.

Tests used:
brain [1] = settings: cited from earlier work; for Kin: rat, in vivo
brain [2] = settings: cited from earlier work
brain [3] = settings: mouse, in vivo; cited from earlier work
[4] = system: blood-brain barrier (BBB); test: Multiple time regression (MTR) analysis, blood-to-brain influx; assay type: in vivo, ICR-CD-1 mice
Procedure: Shortly, 200 μl of the radioiodinated CPP solution (30000 cpm/μl) was injected into the right jugular externalis vein of anesthetized ICR-CD-1 mice, which were then decapitated at 1, 3, 5, 10, 12.5 and 15 min post injection, with first and last time points performed in duplicate, after which brains were collected and measured for radioactivity using a gamma counter (Wallac Wizard 1470, Perkin Elmer). Shortly before decapitation, blood was collected from the left carotid artery, which was centrifuged (10000 g, 15 min at 21°C) in order to measure the radioactivity of blood and serum. Dermorphin and radioiodinated BSA were used as positive and negative control, respectively. The blood-to-brain entry during the experimental period of 15 min was evaluated by plotting the ratio of brain (Am(T)) and serum activity (Cp(T)), corrected for the brain weight and serum volume, respectively, versus the exposure time (Θ), expressing the theoretical steady state serum level of the iodinated peptide at a given serum concentration [37, 73]. The exposure time is calculated as the integral of the arterial serum radioactivity over time divided by the radioactivity at time t. The integral is calculated through the trapezoidal rule of the log-transformed data [73]. In the linear part of the curve, assuming a two-compartmental BBB model, data can be fitted using a linear model from which the unidirectional influx rate (Kin), also referred to as unidirectional blood to brain clearance K1 [46], and the initial brain distribution volume (Vi) can be determined using the following equation according to Gjedde and Patlak [37–40]: Am(T)/Cp(T)=Abrain(T)/Aserum(T)=Kin⋅Θ+Vi with Θ = ∫0TCp(t) ⋅ dt/Cp(T) (1)

[5] = 15 min post IV injection of radiolabeled peptide, % injected dose, n = 2, ICR-CD-1 mice; described in words
[6] = system: blood-brain barrier (BBB); test: Regional variation in brain influx (MTR, dissected brain regions)
Procedure: The protocol of the multiple time regression (MTR) analysis to evaluate whether the peptides cross the BBB is described in detail elsewhere. […] Dermorphin and radioiodinated BSA were used as positive and negative control, respectively. […] The exposure time is calculated as the integral of the arterial serum radioactivity over time divided by the radioactivity at time t. The integral is calculated through the trapezoidal rule of the log-transformed data. In the linear part of the curve, assuming a two-compartmental BBB model, data can be fitted using a linear model from which the unidirectional influx rate (Kin), also referred to as unidirectional blood to brain clearance K1 [46], and the initial brain distribution volume (Vi) can be determined using the following equation according to Gjedde and Patlak: Am(T)/Cp(T)=Abrain(T)/Aserum(T)=Kin⋅Θ+Vi with Θ = ∫0TCp(t) ⋅ dt/Cp(T) (1)
Different dissected brain regions were weighed and measured in the gamma counter. The unidirectional influx and initial distribution volume of the iodinated peptides for the different brain regions are determined using Eq 1.
Generally, regression lines were computed using the least squares method. Regression lines of the ratio of the brain-to-serum radioactivity versus the exposure time obtained during the evaluation of the regional brain distribution and the used brain influx mechanism, were statistically compared using the Prism 6 software (GraphPad, La Jolla, USA).

cellular uptake = system: cellular uptake; parameters: method as in Stalmans et al.[1]; settings: cell-penetrating (CP-) response, quantitative expression of cellular influx; ref Stalmans et al.[1]; cited from earlier work
[7] = system: blood-brain barrier (BBB); test: Brain-to-blood transport (efflux) after intracerebroventricular injection; settings: mouse; for t1/2,brain (half-time disappearance): in vivo
Procedure: Female, ICR-CD-1 mice (Harlan Laboratories, Venray, The Netherlands), aged 7 to 10 weeks and weighing 28–36 g, were used during the in vivo BBB transport experiments. All animal experiments were performed in accordance with the Ethical Committee principles of laboratory animal welfare. The protocol was approved by the Ethical Committee of the Faculty of Veterinary Science of Ghent University (Permit Numbers: 2009–052 and 2014–128). Prior to experiments, mice were anesthetized by intraperitoneal injection of a 40% urethane solution (3 g/kg) (Sigma-Aldrich, Diegem, Belgium).
For evaluation of the efflux of the peptides out of the brain, 1 μl of a radioiodinated peptide solution (25000 cpm/μl) was injected in the lateral ventricle of anesthetized ICR-CD-1 mice at a speed of 360 μl/h for 10 s using a syringe pump (KDS100, KR analytical, Cheshire, UK). […] The brain half-time disappearance (t1/2,brain) was calculated from the linear regression of the natural logarithm of the residual radioactivity in brain versus time as follows: t1/2,brain=ln(2)/kout (5) with kout defined as the efflux rate constant calculated as the absolute value of the slope of the linear regression, applying first order kinetics. An extensive description of the protocol can be found elsewhere.

[8] = system: blood-brain barrier (BBB); test: Classification of peptides according to their BBB influx
Description: This peptide is derived from the murine vascular endothelial (VE)-cadherin, located in the adherens junctions between the vascular endothelial cells, and constitutes the 13 cytosolic amino acids closest to the membrane and five amino acids from the C-terminus of the transmembrane region (615–632).

[9] = system: brain parenchyma and capillaries; test: Capillary depletion method: brain parenchyma/capillary distribution; assay type: in vivo, ICR-CD-1 mice; settings: mouse, in vivo, iv
Procedure: The capillary depletion method was used to evaluate the distribution of the peptide between the brain parenchyma and capillaries. In summary (see Materials and Methods in [45]), 200 μl of a radiolabeled peptide solution (10000 cpm/μl) was injected in the jugular externalis vein of two anesthetized ICR-CD-1 mice. Ten minutes after IV injection, mice were decapitated and brains were collected and measured for radioactivity. […] The resulting homogenate was weighed and centrifuged at 5400 g for 30 min at 4°C, resulting in a pellet, i.e. capillaries, and supernatant, i.e. parenchyma and fat tissue, which were weighed and measured in the gamma counter. […] Compartmental distribution was calculated as follows: Fractioncapillaries or parenchyma (%)=[…] or parenchyma/[…]×100 (4)

[10] = system: blood-brain barrier (BBB); test: Saturability of brain influx: MTR with and without excess unlabeled peptide; parameters: species or system ICR-CD-1 mice; settings: mouse, in vivo, iv
Procedure: This dose of 20 μg was determined based on the amount of peptide injected during a MTR experiment estimated based on the specific activity and taking into account the amount of non-radioactively iodinated peptide present in the injected dose. […] During this experiment, peptides are radiolabeled using a no-carrier added method in order that only radioactively labeled peptide was injected.

BBB = settings: after i.p. injection, fluorimetry; ref [41] of S1 Table; cited from earlier work
Description: page 6: Supplementary Information S1 Table.

[11] = activity of the 68Ga-DOTA labeled peptide; ref [49]; cited from earlier work
Description: For pVEC and Tat 47–57, a very high liver concentration was observed compared to the other tissues, which can indicate metabolization, but also uptake of the peptides and their metabolites in hepatocytes.

[12] = 125I-radioiodinated, IV, ICR-CD-1 mice, MTR 1-15 min, ± 65% confidence limits

CC1(C)S[C@@H]2[C@H](NC(=O)Cc3ccccc3)C(=O)N2[C@H]1C(=O)O [Benzylpenicillin]
Kin (brain [1]): 0.15 µL/s/g

COc1cccc2c1C(=O)c1c(O)c3c(c(O)c1C2=O)C[C@@](O)(C(=O)CO)C[C@@H]3O[C@H]1C[C@H](N)[C@H](O)[C@H](C)O1 [Doxorubicin]
Kin (brain [1]): 0.25 µL/s/g
Vd (brain [2]; mouse, in vivo): < 100 µL/g

CN1CC[C@]23c4c5ccc(O)c4O[C@H]2[C@@H](O[C@@H]2O[C@H](C(=O)O)[C@@H](O)[C@H](O)[C@H]2O)C=C[C@H]3[C@H]1C5 [Morphine-6-glucuronide]
Kin (brain [2]; in situ brain perfusion in mice, ref [6] of S1 Table): 0.024 µL/s/g

CC(C)c1nc(CN(C)C(=O)N[C@H](C(=O)N[C@@H](Cc2ccccc2)C[C@H](O)[C@H](Cc2ccccc2)NC(=O)OCc2cncs2)C(C)C)cs1 [Ritonavir]
Brain drug level (brain [3]): 0.1 µg/g

Dalargin
Vd (brain [1]; in situ brain perfusion (single time) in rats, ref [2] of S1 Table): 16.7 µL/g

Dermorphin [reference compound]
Kin (unidirectional influx rate), linear Gjedde-Patlak model ([4]; 125I-radioiodinated peptide, IV jugular vein 200 μl (30000 cpm/μl), anesthetized female ICR-CD-1 mice, 1-15 min, brain/serum radioactivity (gamma counter) vs exposure time, whole brain, ± 65% confidence limits, pVEC, SynB3, TP10: two experiments fitted together): 0.63 ± 0.10 µL/g/min
Vi (initial brain distribution volume), linear Gjedde-Patlak model ([4]; 125I-radioiodinated, IV, ICR-CD-1 mice, MTR 1-15 min, whole brain, ± 65% confidence limits): 13.98 ± 0.79 µL/g
K1 (unidirectional clearance, slope of the initial phase), biphasic model [4, 12]: 2.54 ± 0.50 µL/g/min
K (net clearance, slope of the plateau phase), biphasic model [4, 12]: 0.03 ± 0.06 µL/g/min
Vg (tissue brain distribution volume), biphasic model [4, 12]: 13.72 ± 2.17 µL/g
Relative tissue distribution [5]: high liver distributions
Difference in brain influx rates between the eight dissected brain regions ([6]; comparison of slopes (Kin), Prism 6, P threshold 0.05, ICR-CD-1 mice): no statistically significant difference

LLIILRRRIRKQAHAHSK-NH2 [pVEC, cell-penetrating peptide derived from murine VE-cadherin (615–632); tested radioiodinated]
Kin (unidirectional influx rate), linear Gjedde-Patlak model ([4]; mouse, in vivo, iv): 6.02 ± 0.29 µL/g/min
Maximal ratio of brain-to-serum radioactivity ([4]; mouse, in vivo, iv): about 180 μl/g
CP-response (cellular uptake): 1.318
kout (efflux transfer constant) [7]: 0.10 ± 0.11 min⁻¹
BBB influx class [8]: class 5
Parenchymal fraction [9]: 80%
Difference in brain influx rates between the eight dissected brain regions ([6]; mouse, in vivo): significantly differed
Kin, cerebellum ([6]; mouse, in vivo, iv): 5.61 [5.12, 6.10] μl/(g × min)
Kin, frontal cortex ([6]; mouse, in vivo, iv): 4.84 [4.66, 5.02] μl/(g × min)
Kin, hippocampus ([6]; mouse, in vivo, iv): 3.94 [3.51, 4.37] μl/(g × min)
Kin, midbrain ([6]; mouse, in vivo, iv): 5.32 [5.17, 5.46] μl/(g × min)
Kin, occipital and parietal cortex ([6]; mouse, in vivo, iv): 5.03 [4.73, 5.32] μl/(g × min)
Kin, pons medulla ([6]; mouse, in vivo, iv): 4.51 [3.87, 5.15] μl/(g × min)
Kin, striatum ([6]; mouse, in vivo, iv): 4.07 [3.77, 4.37] μl/(g × min)
Kin, thalamus and hypothalamus ([6]; mouse, in vivo, iv): 4.12 [3.86, 4.38] μl/(g × min)
Kin, whole brain ([6]; mouse, in vivo, iv): 6.04 [5.78, 6.30] μl/(g × min)
Vi, cerebellum ([6]; mouse, in vivo, iv): 21.02 [15.09, 26.95] μl/g
Vi, frontal cortex ([6]; mouse, in vivo, iv): 12.93 [10.77, 15.09] μl/g
Vi, hippocampus ([6]; mouse, in vivo, iv): 9.33 [4.13, 14.54] μl/g
Vi, midbrain ([6]; mouse, in vivo, iv): 13.88 [12.15, 15.62] μl/g
Vi, occipital and parietal cortex ([6]; mouse, in vivo, iv): 16.61 [13.02, 20.19] μl/g
Vi, pons medulla ([6]; mouse, in vivo, iv): 36.06 [28.34, 43.78] μl/g
Vi, striatum ([6]; mouse, in vivo, iv): 11.47 [7.81, 15.13] μl/g
Vi, thalamus and hypothalamus ([6]; mouse, in vivo, iv): 17.72 [11.58, 17.86] μl/g
Vi, whole brain ([6]; mouse, in vivo, iv): 24.37 [21.23, 27.51] μl/g
Vi with excess dose of unlabeled peptide [10]: 1 µL/g

RRLSYSRRRF-NH2 [SynB3]
K1 (unidirectional clearance, slope of the initial phase), biphasic model ([4]; mouse, in vivo, iv): 29.84 ± 8.42 µL/g/min
Kin (unidirectional influx rate), linear Gjedde-Patlak model ([4]; mouse, in vivo, iv): 5.63 ± 1.83 µL/g/min
Maximal ratio of brain-to-serum radioactivity ([4]; mouse, in vivo, iv): about 70 μl/g
CP-response (cellular uptake): 0.126
kout (efflux transfer constant) [7]: 0.05 ± 0.01 min⁻¹
t1/2,brain (half-time disappearance) [7]: 15 min
BBB influx class [8]: class 5
Parenchymal fraction [9]: 77%
Difference in brain influx rates between the eight dissected brain regions ([6]; mouse, in vivo): no statistically significant difference

TP10
CP-response (cellular uptake): 1.641

VIP: cargo peptide VIP alone
Brain uptake efficiency (BBB): 0.78

YGRKKRRQRRR-NH2 [Tat 47–57, short cationic cell-penetrating peptide]
K1 (unidirectional clearance, slope of the initial phase), biphasic model [4, 12]: 13.50 ± 3.88 µL/g/min
K (net clearance, slope of the plateau phase), biphasic model ([4]; mouse, in vivo, iv): 0.27 ± 0.46 µL/g/min
Kin (unidirectional influx rate), linear Gjedde-Patlak model ([4]; mouse, in vivo, iv): 4.73 ± 1.23 µL/g/min
CP-response (cellular uptake): 0.309
kout (efflux transfer constant) [7]: 0.21 ± 0.08 min⁻¹
t1/2,brain (half-time disappearance) [7]: 3 min
BBB influx class [8]: class 5
Parenchymal fraction [9]: 79%

^68Ga-DOTA labeled pVEC: 68Ga-DOTA labeled pVEC of a literature study (TLLIILRRRIRKQAHAHS; also: 68Ga-DOTA label (site not given here); UniProt P55284 615-632, looked up, fragment)
(human) serum half-life [11]: a few hours
